Laboratory results reported in patent US20130005644A1, “CYCLIC AGONISTS AND ANTAGONISTS OF C5A RECEPTORS AND G PROTEIN-COUPLED RECEPTORS” (PROMICS PTY LIMITED, priority 1997, published 2013).
Like-named read-outs stand apart in the source and are kept apart here. Where a SMILES comes first, the peptide text is derived from it. [ ]: non-standard residue; d: D form. dCha = N[C@H](CC1CCCCC1)C(=O)O

How the values were obtained:
C5a receptor [1] = target: T1, C5a receptor (Homo sapiens, UniProt P21730); assay: Myeloperoxidase release from human PMNs mediated by 100 nM C5a (antagonist potency); format: cell-based; settings: for IC50: 50% inhibition of C5a (100 nM)-caused release of MPO from PMNs, mean ± SE, read-out: pD2 ± SE (antagonist potency) (converted)
T1 construct: endogenous in cells; host or cells: fresh human polymorphonuclear leukocytes (PMNs), intact cells
T1 sequence (P21730 1-350): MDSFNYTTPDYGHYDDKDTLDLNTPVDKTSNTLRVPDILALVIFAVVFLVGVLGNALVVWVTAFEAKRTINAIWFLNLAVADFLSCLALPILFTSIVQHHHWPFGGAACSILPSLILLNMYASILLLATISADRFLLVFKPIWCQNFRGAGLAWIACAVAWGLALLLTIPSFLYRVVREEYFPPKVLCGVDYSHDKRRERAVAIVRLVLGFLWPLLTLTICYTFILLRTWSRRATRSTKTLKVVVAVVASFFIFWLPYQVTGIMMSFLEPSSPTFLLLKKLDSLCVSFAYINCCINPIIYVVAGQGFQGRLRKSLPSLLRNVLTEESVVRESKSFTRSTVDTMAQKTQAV

C5a receptor [2] = target: T1, C5a receptor; assay: Agonist activity in human PMNs; format: cell-based
Protocol: Cells were isolated as previously described (Sanderson et al, 1995) and incubated with cytochalasin B (5 μg/mL, 15 min, 37° C.). Hank's Balanced Salt solution containing 0.15% gelatin and peptide was added on to a 96 well plate (total volume 100 μL/well), followed by 25 μL cells (4×10^6/mL). To assess the capacity of each peptide to antagonise C5a, cells were incubated for 5 min at 37° C. with each peptide, followed by addition of C5a (100 nM) and further incubation for 5 min. Then 50 μL of sodium phosphate (0.1M, pH 6.8) was added to each well, the plate was cooled to room temperature, and 25 μL of a fresh mixture of equal volumes of dimethoxybenzidine (5.7 mg/mL) and H2O2 (0.51%) was added to each well. The reaction was stopped at 10 min by addition of 2% sodium azide. Absorbances were measured at 450 nm in a Bioscan 450 plate reader, corrected for control values (no peptide), and analysed by non-linear regression.

C5aR [3] = target: T2, C5aR (Homo sapiens, UniProt P21730); assay: Receptor-binding assay: inhibition of 125I-C5a binding to intact human PMNs
T2 construct: endogenous in cells; host or cells: fresh human polymorphonuclear leukocytes (PMNs), intact cells
T2 sequence (P21730 1-350): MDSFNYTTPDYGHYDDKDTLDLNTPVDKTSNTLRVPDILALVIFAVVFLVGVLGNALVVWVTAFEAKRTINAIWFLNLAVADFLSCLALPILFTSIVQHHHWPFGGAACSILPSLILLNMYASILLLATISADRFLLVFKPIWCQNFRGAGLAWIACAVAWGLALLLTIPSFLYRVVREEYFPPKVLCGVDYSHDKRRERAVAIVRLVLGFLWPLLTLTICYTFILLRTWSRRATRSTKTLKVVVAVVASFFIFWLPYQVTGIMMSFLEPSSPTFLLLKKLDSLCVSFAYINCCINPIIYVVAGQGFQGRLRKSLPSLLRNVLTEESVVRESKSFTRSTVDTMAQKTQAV

[4] = test system: carrageenan-induced paw oedema in Wistar rats; assay: Carrageenan-induced rat paw oedema; format: in vivo; settings: 1 mg/kg i.p. 30 min prior to carrageenan, after 180 and 270 min
Protocol: Alternatively, a routine carrageenan paw oedema was developed in Wistar rats by administering a pedal injection of carrageenan to elicit oedema which is visible in 2 h and maximised in 4 h. […] See Fairlie, D. P. et al (1987). Also see Walker and Whitehouse (1978).
Paw swelling was measured for up to 4.5 hr.

human fetal artery = settings: C5a agonist analogues; cited from earlier work
C5a receptor [5] = target: T1, C5a receptor; settings: human PMN; C5a agonist analogues; read-out: PMN Enzyme Release EC50; cited from earlier work
C5aR [6] = target: T2, C5aR; settings: cited from earlier work
[7] = test system: C5a-induced neutropenia in Wistar rats; assay: C5a-induced neutropenia in vivo; settings: 1 mg/kg i.v. given prior to 2 μg C5a i.v.
Protocol: Compounds were evaluated in an acute model of C5a-induced neutropenia. Transient neutropenia maximises 5 min after i.v. C5a and is profound, with >90% of circulating neutrophils disappearing from circulation at effective doses of C5a, as shown in FIG. 8. The neutropenia is due to transient adherence of circulating neutrophils to the vascular endothelium.

[8] = test system: LPS-induced neutropenia in Wistar rats; assay: LPS-induced neutropenia and haematocrit change; format: in vivo
Protocol: LPS causes rapid neutropenia in rats. If this effect of LPS is blocked by C5a antagonists, then C5a may be of major importance in the acute effects of LPS, and the results shown in FIG. 9 were in agreement with this hypothesis. C5a antagonists were injected (bolus i.v.) 10 min prior to challenge with LPS. Rats were anaesthetised, and blood samples (0.3 ml) were taken for measurements of PMNs. PMNs are isolated and quantified.

[9] = dose range 0.1 nM-1 mM, human PMNs
[10] = 50% inhibition in the binding of [125I]C5a to intact PMNs, mean ± SE, read-out: pD2 ± SE (binding) (converted)
[11] = PMN C5aR, Finch et al, 1997, read-out: Binding Affinity IC50

Molecule	Agonist Activity (C5a receptor [2]; [9])	EC50 (human fetal artery) [µM]	EC50 (C5a receptor [5]) [µM]	IC50 (C5aR [6]; [11]) [µM]	other results
CN[C@@H](Cc1ccccc1)C(=O)N[C@@H](CCCCN)C(=O)N1CCC[C@H]1C(=O)N[C@H](CC1CCCCC1)C(=O)N[C@@H](Cc1c[nH]c2ccccc12)C(=O)N[C@@H](CCCNC(=N)N)C(=O)O [Compound 9, MeFKP(dCha)WR]	No				
CC(=O)N[C@@H](Cc1ccccc1)C(=O)N[C@H]1CCCCNC(=O)[C@@H](CCCNC(=N)N)NC(=O)[C@H](Cc2c[nH]c3ccccc23)NC(=O)[C@@H](CC2CCCCC2)NC(=O)[C@@H]2CCCN2C1=O [Compound 11, Ac-F-[KP(dCha)Wr]	No				Agonist Activity (C5a receptor [2]; Table 5, cyclic molecules): No
CC(=O)N[C@@H](Cc1ccccc1)C(=O)N[C@H]1CCCNC(=O)[C@@H](CCCNC(=N)N)NC(=O)[C@H](Cc2c[nH]c3ccccc23)NC(=O)[C@@H](CC2CCCCC2)NC(=O)[C@@H]2CCCN2C1=O [Compound 12, Ac-F-[OP(dCha)Wr]	No				increase in receptor-binding affinity over decapeptide C-terminus of C5a (1) (C5aR [3]): 10^4; times less active than 17 in vitro as a C5a antagonist in PMNs (C5a receptor [1]): 100 times; Agonist Activity (C5a receptor [2]; Table 5, cyclic molecules): No; development of carrageenan paw oedema (paw swelling) [4]: significantly inhibits development of the oedema
N=C(N)NCCC[C@@H]1NC(=O)[C@H](Cc2c[nH]c3ccccc23)NC(=O)[C@@H](CC2CCCCC2)NC(=O)[C@@H]2CCCN2C(=O)[C@@H](NC(=O)[C@@H](N)Cc2ccccc2)CCNC1=O [Compound 15, F-[X^2PdChaWR]]					IC50 (C5aR [3]; [10]): 0.316 µM; IC50 (C5aR [3]; Table 5, cyclic molecules, read-out: Receptor Affinity): 0.3 µM; IC50 (C5a receptor [1]): 0.0437 µM; inhibition of the action of C5a and the binding of 125I-C5a to its receptor (C5a receptor [1]; in vitro on human PMNs): potent inhibitors at nM concentrations; Agonist Activity (C5a receptor [2]; Table 5, cyclic molecules): No
CC(=O)N[C@@H](Cc1ccccc1)C(=O)N[C@H]1CCCCNC(=O)[C@H](CCCNC(=N)N)NC(=O)[C@H](Cc2c[nH]c3ccccc23)NC(=O)[C@@H](CC2CCCCC2)NC(=O)[C@@H]2CCCN2C1=O [Compound 18]					Agonist Activity (C5a receptor [2]; Table 5, cyclic molecules): No
N=C(N)NCCC[C@H]1NC(=O)[C@H](Cc2c[nH]c3ccccc23)NC(=O)[C@@H](CC2CCCCC2)NC(=O)[C@@H]2CCCN2C(=O)[C@H](Cc2c[nH]c3ccccc23)NC(=O)[C@H](Cc2ccccc2)NC1=O [Compound 19, [FWPdChaWr]] (cyclo(FWP[dCha]W[dR]); ring closure inferred)					pD2 ± SE (binding) (C5aR [3]; 50% inhibition in the binding of [125I]C5a to intact PMNs, mean ± SE): 4.37 ± 0.36
N=C(N)NCCC[C@H]1NC(=O)[C@H](Cc2c[nH]c3ccccc23)NC(=O)[C@@H](CC2CCCCC2)NC(=O)[C@@H]2CCCN2C(=O)[C@@H](NC(=O)[C@@H](N)Cc2ccccc2)CCCCNC1=O [Compound 26, F-[KPdChaWr]]					IC50 (C5aR [3]; [10]): 8.13 µM; IC50 (C5a receptor [1]): 2.82 µM
N=C(N)NCCC[C@@H]1NC(=O)[C@H](Cc2c[nH]c3ccccc23)NC(=O)[C@@H](CC2CCCCC2)NC(=O)[C@@H]2CCCN2C(=O)[C@@H](NC(=O)[C@@H](N)Cc2ccccc2)CCCCNC1=O [Compound 28, F-[KPdChaWR]]					IC50 (C5aR [3]; [10]): 0.316 µM; IC50 (C5a receptor [1]): 0.204 µM
C5a12-20-ahxYSFKPMPLaR [Compound 6]		0.08	0.7	0.07	
C5a37-46-ahxYSFKPMPLaR [Compound 5]		0.06	5.9	0.7	
C5a65-74 (ISHKDMQLGR) [Compound 1, decapeptide C-terminus of C5a]		> 1000	> 1000	> 1000	IC50 (C5aR [6]; literature values (Finch et al, 1997; Kawai et al, 1991), read-out: Receptor Affinity IC50): > 1000 µM
F-[OPdChaWR]					C5a-induced neutropenia [7]: inhibits C5a-induced neutropenia; LPS-induced neutropenia ([8]; 1 mg/kg i.v. 10 min prior to i.v. LPS, rats): inhibits neutropenia; LPS-induced changes in haematocrit ([8]; 0.03-10 mg/kg i.v., 10 min prior to LPS 1 mg/kg i.v., Wistar rats): inhibition of LPS-induced neutropenia and changes in haematocrit
YSFKDMPLaR [Compound 3, C5a agonist analogue]		0.5	72	3.7	
YSFKDMQLGR [Compound 2, C5a agonist analogue]		9.6	92	1.3	
C5a: human recombinant C5a, 74 amino acid complement glycoprotein (protein) TLQKKIEEIAAKYKHSVVKKCCYDGACVNNDETCEQRAARISLGPRCIKAFTECCVVASQLRANISHKDMQLGR	Yes	0.02	0.03	0.0006	

Now from value to molecule, other results behind:

Agonist Activity (C5a receptor [2]; [9])	Molecule	EC50 (human fetal artery) [µM]	EC50 (C5a receptor [5]) [µM]	IC50 (C5aR [6]; [11]) [µM]	other results
no agonist properties	CN[C@@H](Cc1ccccc1)C(=O)N[C@@H](CCCCN)C(=O)N1CCC[C@H]1C(=O)N[C@H](CC1CCCCC1)C(=O)N[C@@H](Cc1c[nH]c2ccccc12)C(=O)N[C@H](CCCNC(=N)N)C(=O)O [Compound 7, N-methylphenylalanine-lysine-proline-D-cyclohexylalanine-tryptophan-D-arginine, reference compound]				antagonist activity against C5a and agonist decapeptide analogue 4 (C5a receptor [1]; human PMNs): shows antagonist activity; Agonist Activity (C5a receptor [2]; dose range 0.1 nM-1 mM, human PMNs, listed as SEQ. ID NO: 7): No
No	CN[C@@H](Cc1ccccc1)C(=O)N[C@@H](CCCCN)C(=O)N1CCC[C@H]1C(=O)N[C@H](CC1CCCCC1)C(=O)N[C@@H](Cc1c[nH]c2ccccc12)C(=O)N[C@H](CCCNC(=N)N)C(N)=O [Compound 8, MeFKP(dCha) Wr-CONH2]				reduction of receptor-affinity versus 7 (C5aR [3]; conversion to the amide): approximately 5 fold; reduction of antagonist activity versus 7 (C5a receptor [1]; conversion to the amide): approximately 5 fold
